From the supplement of paper PMC10307832

Compound: N#CC1(c2ccc(NC(=O)c3cccnc3NCc3ccncc3)cc2)CCCC1 [Apatinib] + COc1cc2c(Oc3ccc(NC(=O)C4(C(=O)Nc5ccc(F)cc5)CC4)cc3F)ccnc2cc1OCCCN1CCOCC1 [Foretinib] (partner 0.25 µM)
Test: relative viability (nuclei count vs DMSO), 5 days (fraction); higher = more cells survive
Conditions: first compound 0.08 µM
Procedure, shortened: (§1)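 Lung cancer cell lines in 1536-well plates were dosed by pin tool the day after seeding, either with one drug alone or with a fixed anchor-drug dose plus five library-drug doses (not always all listed) in √10 steps. After 5 days, cells were fixed and their nuclei stained in one step (final 0.05% Triton X-100, 1% formaldehyde, 1 ug/ml Hoechst), then counted on 4× images. Relative viability is the nuclei count in treated wells divided by that in vehicle wells. Values are medians of duplicate plates.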

Row | Cell Line | relative viability
1 | NCI-H1734 | 0.932
2 | NCI-H1755 | 0.984
3 | NCI-H1793 | 0.761
4 | NCI-H1915 | 1.18
5 | NCI-H1944 | 0.869
6 | NCI-H1975 | 1.13
7 | NCI-H1993 | 0.85
8 | NCI-H2009 | 1.39
9 | NCI-H2023 | 0.963
10 | NCI-H2085 | 0.991
11 | NCI-H2087 | 1.22
12 | NCI-H2126 | 1.28
13 | NCI-H2170 | 1.04
14 | NCI-H2228 | 0.933
15 | NCI-H2347 | 0.657
16 | NCI-H2405 | 1.15
17 | NCI-H3122 | 0.995
18 | PC-3 [JPC-3] | 1.02
19 | PC-14 | 1.02
20 | RERF-LC-KJ | 0.875
21 | SK-LU-1 | 1.01
22 | SK-MES-1 | 1.02
23 | SW 1573 | 0.981
24 | UMC-11 | 1.04

Same assay, conditions: first compound 0.253 µM

Row | Cell Line | relative viability
25 | NCI-H1666 | 0.998
26 | NCI-H1734 | 0.833
27 | NCI-H1755 | 0.954
28 | NCI-H1793 | 0.585
29 | NCI-H1915 | 1.08
30 | NCI-H1944 | 0.942
31 | NCI-H1975 | 0.907
32 | NCI-H1993 | 0.766
33 | NCI-H2009 | 1.18
34 | NCI-H2023 | 0.751
35 | NCI-H2085 | 1.05
36 | NCI-H2087 | 1.13
37 | NCI-H2126 | 1.12
38 | NCI-H2170 | 0.958
39 | NCI-H2228 | 0.791
40 | NCI-H2347 | 0.912
41 | NCI-H2405 | 1.02
42 | NCI-H3122 | 0.891
43 | PC-3 [JPC-3] | 1
44 | PC-14 | 1.01
45 | RERF-LC-KJ | 0.931
46 | SK-LU-1 | 0.857
47 | SK-MES-1 | 0.935
48 | SW 1573 | 1.07
49 | UMC-11 | 1.09

Same assay, conditions: first compound 0.8 µM

Row | Cell Line | relative viability
50 | NCI-H1666 | 0.942
51 | NCI-H1734 | 0.839
52 | NCI-H1755 | 0.912
53 | NCI-H1793 | 0.507
54 | NCI-H1915 | 1.03
55 | NCI-H1944 | 0.691
56 | NCI-H1975 | 0.84
57 | NCI-H1993 | 0.808
58 | NCI-H2009 | 1.17
59 | NCI-H2023 | 0.849
60 | NCI-H2085 | 0.79
61 | NCI-H2087 | 0.91
62 | NCI-H2126 | 1.23
63 | NCI-H2170 | 0.978
64 | NCI-H2228 | 0.777
65 | NCI-H2347 | 0.856
66 | NCI-H2405 | 1.09
67 | NCI-H3122 | 0.947
68 | PC-3 [JPC-3] | 0.986
69 | PC-14 | 0.83
70 | RERF-LC-KJ | 0.857
71 | SK-LU-1 | 0.859
72 | SK-MES-1 | 0.967
73 | SW 1573 | 0.963
74 | UMC-11 | 0.935

Same assay, conditions: first compound 2.53 µM

Row | Cell Line | relative viability
75 | NCI-H1666 | 0.943
76 | NCI-H1734 | 0.732
77 | NCI-H1755 | 0.91
78 | NCI-H1793 | 0.601
79 | NCI-H1915 | 0.943
80 | NCI-H1944 | 0.807
81 | NCI-H1975 | 0.862
82 | NCI-H1993 | 0.702
83 | NCI-H2009 | 1.07
84 | NCI-H2023 | 1.02
85 | NCI-H2085 | 0.854
86 | NCI-H2087 | 1.02
87 | NCI-H2126 | 0.954
88 | NCI-H2170 | 0.983
89 | NCI-H2228 | 0.688
90 | NCI-H2405 | 0.998
91 | NCI-H3122 | 1.06
92 | PC-3 [JPC-3] | 0.925
93 | PC-14 | 0.973
94 | RERF-LC-KJ | 0.737
95 | SK-LU-1 | 0.719
96 | SK-MES-1 | 0.838
97 | SW 1573 | 0.854
98 | UMC-11 | 0.939

Same assay, conditions: first compound 8 µM

Row | Cell Line | relative viability
99 | NCI-H1666 | 1.03
100 | NCI-H1734 | 0.676
101 | NCI-H1755 | 0.806
102 | NCI-H1793 | 0.475
103 | NCI-H1915 | 0.836
104 | NCI-H1944 | 0.603
105 | NCI-H1975 | 0.783
106 | NCI-H1993 | 0.687
107 | NCI-H2009 | 0.853
108 | NCI-H2023 | 0.794
109 | NCI-H2085 | 0.817
110 | NCI-H2087 | 0.899
111 | NCI-H2126 | 0.987
112 | NCI-H2170 | 0.846
113 | NCI-H2228 | 0.51
114 | NCI-H2347 | 0.766
115 | NCI-H2405 | 1.09
116 | NCI-H3122 | 0.918
117 | PC-3 [JPC-3] | 0.853
118 | PC-14 | 1.06
119 | RERF-LC-KJ | 0.733
120 | SK-LU-1 | 0.732
121 | SK-MES-1 | 0.896
122 | SW 1573 | 0.821
123 | UMC-11 | 1.03

Compound: N#CC1(c2ccc(NC(=O)c3cccnc3NCc3ccncc3)cc2)CCCC1 [Apatinib] + Nc1nc2[nH]cc(CCc3ccc(C(=O)N[C@@H](CCC(=O)O)C(=O)O)cc3)c2c(=O)[nH]1 [Pemetrexed] (partner 0.2 µM)
Test: as above
Conditions: first compound 0.08 µM
Procedure, shortened: as §1

Row | Cell Line | relative viability
124 | NCI-H1666 | 0.874
125 | NCI-H1734 | 0.452
126 | NCI-H1755 | 0.423
127 | NCI-H1793 | 1.1
128 | NCI-H1915 | 0.503
129 | NCI-H1944 | 0.687
130 | NCI-H1975 | 0.296
131 | NCI-H1993 | 0.593
132 | NCI-H2009 | 1.07
133 | NCI-H2023 | 0.212
134 | NCI-H2085 | 0.949
135 | NCI-H2087 | 0.657
136 | NCI-H2126 | 0.741
137 | NCI-H2170 | 0.288
138 | NCI-H2228 | 0.324
139 | NCI-H2347 | 0.477
140 | NCI-H2405 | 1.15
141 | NCI-H3122 | 0.212
142 | PC-14 | 0.142
143 | RERF-LC-KJ | 0.493
144 | SK-LU-1 | 1.09
145 | SK-MES-1 | 0.976
146 | SW 1573 | 0.87
147 | UMC-11 | 0.783

Same assay, conditions: first compound 0.253 µM

Row | Cell Line | relative viability
148 | NCI-H1666 | 0.858
149 | NCI-H1734 | 0.456
150 | NCI-H1755 | 0.441
151 | NCI-H1793 | 0.932
152 | NCI-H1915 | 0.493
153 | NCI-H1944 | 0.562
154 | NCI-H1975 | 0.299
155 | NCI-H1993 | 0.566
156 | NCI-H2009 | 0.996
157 | NCI-H2023 | 0.278
158 | NCI-H2085 | 0.777
159 | NCI-H2087 | 0.682
160 | NCI-H2126 | 0.674
161 | NCI-H2170 | 0.275
162 | NCI-H2228 | 0.312
163 | NCI-H2347 | 0.404
164 | NCI-H2405 | 1.1
165 | NCI-H3122 | 0.192
166 | PC-3 [JPC-3] | 1.05
167 | PC-14 | 0.133
168 | RERF-LC-KJ | 0.466
169 | SK-LU-1 | 0.995
170 | SK-MES-1 | 0.915
171 | SW 1573 | 0.854
172 | UMC-11 | 0.771

Same assay, conditions: first compound 0.8 µM

Row | Cell Line | relative viability
173 | NCI-H1666 | 0.842
174 | NCI-H1734 | 0.429
175 | NCI-H1755 | 0.402
176 | NCI-H1793 | 0.871
177 | NCI-H1915 | 0.512
178 | NCI-H1944 | 0.501
179 | NCI-H1975 | 0.271
180 | NCI-H1993 | 0.605
181 | NCI-H2009 | 0.902
182 | NCI-H2023 | 0.2
183 | NCI-H2085 | 0.876
184 | NCI-H2087 | 0.65
185 | NCI-H2126 | 0.736
186 | NCI-H2170 | 0.262
187 | NCI-H2228 | 0.356
188 | NCI-H2347 | 0.449
189 | NCI-H2405 | 1.08
190 | NCI-H3122 | 0.199
191 | PC-3 [JPC-3] | 1.05
192 | PC-14 | 0.124
193 | RERF-LC-KJ | 0.381
194 | SK-LU-1 | 0.918
195 | SK-MES-1 | 0.937
196 | SW 1573 | 0.806
197 | UMC-11 | 0.716

Same assay, conditions: first compound 2.53 µM

Row | Cell Line | relative viability
198 | NCI-H1666 | 0.802
199 | NCI-H1734 | 0.403
200 | NCI-H1755 | 0.329
201 | NCI-H1793 | 0.726
202 | NCI-H1915 | 0.408
203 | NCI-H1944 | 0.456
204 | NCI-H1975 | 0.282
205 | NCI-H1993 | 0.549
206 | NCI-H2009 | 0.879
207 | NCI-H2023 | 0.191
208 | NCI-H2085 | 0.823
209 | NCI-H2087 | 0.619
210 | NCI-H2126 | 0.671
211 | NCI-H2170 | 0.224
212 | NCI-H2228 | 0.208
213 | NCI-H2347 | 0.409
214 | NCI-H2405 | 0.898
215 | NCI-H3122 | 0.202
216 | PC-3 [JPC-3] | 0.726
217 | PC-14 | 0.0984
218 | RERF-LC-KJ | 0.451
219 | SK-LU-1 | 0.544
220 | SK-MES-1 | 0.757
221 | SW 1573 | 0.708
222 | UMC-11 | 0.663

Same assay, conditions: first compound 8 µM

Row | Cell Line | relative viability
223 | NCI-H1666 | 0.672
224 | NCI-H1734 | 0.255
225 | NCI-H1755 | 0.364
226 | NCI-H1793 | 0.633
227 | NCI-H1915 | 0.392
228 | NCI-H1944 | 0.51
229 | NCI-H1975 | 0.203
230 | NCI-H1993 | 0.549
231 | NCI-H2009 | 0.661
232 | NCI-H2023 | 0.204
233 | NCI-H2085 | 0.782
234 | NCI-H2087 | 0.758
235 | NCI-H2126 | 0.641
236 | NCI-H2170 | 0.251
237 | NCI-H2228 | 0.192
238 | NCI-H2347 | 0.409
239 | NCI-H2405 | 0.867
240 | NCI-H3122 | 0.188
241 | PC-3 [JPC-3] | 0.807
242 | PC-14 | 0.0405
243 | RERF-LC-KJ | 0.327
244 | SK-LU-1 | 0.32
245 | SK-MES-1 | 0.568
246 | SW 1573 | 0.394
247 | UMC-11 | 0.433
